pIC50: −log10 of the molar value.
Target: NaV1.7 (Homo sapiens (Human), UniProt Q15858)
Experiment: NaV1.7 IC50 of Table 1 (IonWorks Barracuda population patch clamp or ligand binding assay; table does not say which)
Type: cell-based
Conditions: HEK 293 cells expressing NaV1.7
Experimental: Ion Works Barracuda population patch clamp (PPC). PPC measurements were performed using an IonWorks Barracuda instrument (Molecular Devices Corporation, Union City, Calif.) using either PatchPlate™ PPC substrates (Molecular Devices Corporation) with 64 apertures per well. The ability to average currents from 64 recordings from each well greatly improves data consistency and recording success rates in the measurement of NaV1.7 mediated ionic currents. Calculated leak current was digitally subtracted from the total cell NaV1.7 current for each sample point acquired.
NaV1.7 currents were elicited by a voltage clamp protocol designed to bias the NaV1.7 channels to their inactivated state as follows. […] This was followed by a relatively brief hyperpolarization to −100 mv for 300 ms, then a 20 msec test pulse to −20 mV to elicit the NaV1.7 current used to measure the pharmacology of all test compounds. Compounds were incubated for 600 sec between the pre- and post-compound reads. […] The same solutions were used to record NaV1.5 currents, with the following voltage clamp protocol. NaV1.5 currents were elicited by a voltage clamp protocol designed to bias the NaV1.5 channels to their inactivated state as follows. […] This was followed by a relatively brief hyperpolarization to −100 mv for 30 ms, then a 20 msec test pulse to −10 mV to elicit the NaV1.5 current used to measure the pharmacology of all test compounds.
HEK 293 cells expressing NaV1.7 and NaV1.5 channels, were used (Essen Biosciences, Ann Arbor, Mich.). […] Cells were grown to 70% to 90% confluence in a flask and removed from the incubator (37° C., 5% CO2) 1 to 3 days after plating. Growth medium was aspirated from the culture flasks. […] Next a total of 2 mL TrypLE (Gibco) solution was added, and the flasks containing cells were sat for 3 min at RT, after which, the cells became visibly rounded and were easily dislodged from the bottom of the flask with a few brief taps on a solid surface. A total of 8 mL of media was added to the flask to inactivate the TrypLE, and the mixture was centrifuged at 910 rpm for 4 min. The cell supernatant was decanted, and the cell pellets were resuspended in 5-6 mL of external solution followed by gentle triturations using a 10 ml pipette, and transferred to a 15 ml conical tube and immediately brought to the IW Barracuda instrument.
Peak membrane currents were analyzed with IW Barracuda software and exported to Excel for further analysis. Concentration response curve fitting was performed with BMS in-house software. IC50 values were obtained by fits of the Hill equation to the average percent inhibition data plotted versus compound concentration. […] Results are reported in Table 1 (NaV1.7 Barra IC50 in nM and NaV1.5 Barra IC50 in nM).
hNaV1.7 binding affinities were determined with a filtration binding assay using purified membranes from HEK293 cells stably expressing hNaV1.7. HEK293 cells from a 10-stack cell culture flask (approximately 10^10 cells) were dissociated, frozen, and stored at −80° C. To prepare membranes, the frozen cell pellet was thawed and suspended in 6 ml hypotonic lysis buffer (50 mM HEPES, 0.1% mammalian protease inhibitor cocktail). 1 ml of resuspended cells was added to an additional 6 ml of lysis buffer and homogenized with 30 strokes of a tight pestle in a glass homogenizer. Homogenate was centrifuged at 1000×g for 10 minutes at 4° C. and the resulting supernatant was further centrifuged at 38,500×g for 60 minutes at 4° C. The resulting pellet was resuspended in binding buffer (50 mM HEPES, 130 mM NaCl, 5.4 mM KCl, 0.8 mM MgCl2, 5 mM glucose, pH 7.4) and needle homogenized with a 25 gauge needle. Protein concentration was determined with a BCA protein assay. Purified membranes were aliquoted, flash frozen in an ethyl alcohol dry ice bath, and stored at −80° C.

NaV1.7, sequence (Q15858 whole entry): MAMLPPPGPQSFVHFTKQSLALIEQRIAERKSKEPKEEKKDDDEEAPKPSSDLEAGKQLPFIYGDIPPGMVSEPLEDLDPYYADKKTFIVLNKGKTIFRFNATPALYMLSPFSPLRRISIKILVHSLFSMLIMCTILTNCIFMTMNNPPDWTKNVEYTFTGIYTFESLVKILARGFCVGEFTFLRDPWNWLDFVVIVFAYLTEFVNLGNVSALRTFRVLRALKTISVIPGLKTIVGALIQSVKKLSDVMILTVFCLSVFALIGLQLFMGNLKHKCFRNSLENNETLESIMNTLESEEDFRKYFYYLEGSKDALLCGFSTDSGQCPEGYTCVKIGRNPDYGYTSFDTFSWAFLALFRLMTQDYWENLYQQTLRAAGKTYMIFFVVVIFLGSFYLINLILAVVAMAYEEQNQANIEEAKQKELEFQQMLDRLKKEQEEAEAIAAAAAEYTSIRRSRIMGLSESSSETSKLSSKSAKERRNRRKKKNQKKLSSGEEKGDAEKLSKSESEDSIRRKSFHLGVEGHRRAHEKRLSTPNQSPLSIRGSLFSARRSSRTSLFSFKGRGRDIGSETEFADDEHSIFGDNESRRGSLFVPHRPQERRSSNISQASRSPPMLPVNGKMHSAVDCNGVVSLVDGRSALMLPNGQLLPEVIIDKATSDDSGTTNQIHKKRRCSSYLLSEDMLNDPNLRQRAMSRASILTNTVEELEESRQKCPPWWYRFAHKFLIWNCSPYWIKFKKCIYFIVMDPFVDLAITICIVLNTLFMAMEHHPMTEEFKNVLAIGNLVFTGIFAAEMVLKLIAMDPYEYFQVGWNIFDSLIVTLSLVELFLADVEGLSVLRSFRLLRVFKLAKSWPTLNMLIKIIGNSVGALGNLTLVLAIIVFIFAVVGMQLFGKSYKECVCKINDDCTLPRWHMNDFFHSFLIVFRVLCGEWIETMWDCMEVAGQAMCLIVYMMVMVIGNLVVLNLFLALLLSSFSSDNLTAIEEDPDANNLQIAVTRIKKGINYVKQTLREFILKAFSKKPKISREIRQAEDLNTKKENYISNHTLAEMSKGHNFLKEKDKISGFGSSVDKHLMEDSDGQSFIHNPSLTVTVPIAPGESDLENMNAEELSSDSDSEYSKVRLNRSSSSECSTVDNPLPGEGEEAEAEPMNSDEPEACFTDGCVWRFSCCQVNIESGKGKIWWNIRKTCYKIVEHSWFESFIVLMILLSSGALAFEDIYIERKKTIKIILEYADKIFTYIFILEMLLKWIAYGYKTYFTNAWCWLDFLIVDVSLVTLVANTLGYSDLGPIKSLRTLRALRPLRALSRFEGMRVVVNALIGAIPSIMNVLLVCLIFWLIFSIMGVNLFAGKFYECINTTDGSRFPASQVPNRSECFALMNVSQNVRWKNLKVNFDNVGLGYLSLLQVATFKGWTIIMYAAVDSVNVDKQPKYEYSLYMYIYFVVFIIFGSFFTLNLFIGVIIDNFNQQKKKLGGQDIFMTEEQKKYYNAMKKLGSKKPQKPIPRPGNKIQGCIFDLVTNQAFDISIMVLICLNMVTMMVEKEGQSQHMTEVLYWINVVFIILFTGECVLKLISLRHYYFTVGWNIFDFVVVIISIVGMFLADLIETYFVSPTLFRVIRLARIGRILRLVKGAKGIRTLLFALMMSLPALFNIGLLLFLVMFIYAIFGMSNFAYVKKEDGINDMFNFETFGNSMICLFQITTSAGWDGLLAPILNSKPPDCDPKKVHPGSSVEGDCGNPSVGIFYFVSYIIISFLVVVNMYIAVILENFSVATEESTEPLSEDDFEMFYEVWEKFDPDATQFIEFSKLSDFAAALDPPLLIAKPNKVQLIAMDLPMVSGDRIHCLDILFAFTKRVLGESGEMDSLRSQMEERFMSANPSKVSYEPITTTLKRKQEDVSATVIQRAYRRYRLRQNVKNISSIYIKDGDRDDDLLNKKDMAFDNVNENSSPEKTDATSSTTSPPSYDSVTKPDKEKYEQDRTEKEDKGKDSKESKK

Compound | pIC50
O=S(=O)(Nc1ncns1)c1cc(Cl)c(OCCC2(c3ccc(Cl)cc3)CCNCC2)cc1F [Example 45, 5-Chloro-4-(2-(4-(4-chlorophenyl)piperidin-4-yl)ethoxy)-2-fluoro-N-(1,2,4-thiadiazol-5-yl)benzenesulfonamide] | 7.41
O=S(=O)(Nc1ncns1)c1cc(F)c(OCCC2(c3ccccc3)CCC(O)CC2)cc1F (stereo not drawn) [Example 48, 2,5-Difluoro-4-(2-(4-hydroxy-1-phenylcyclohexyl)ethoxy)-N-(1,2,4-thiadiazol-5-yl)benzenesulfonamide] | 6.93
NC1CCC(CCOc2cc(F)c(S(=O)(=O)Nc3ncns3)cc2F)(c2ccccc2)CC1 (single isomer, unassigned) [Example 50, 4-(2-(4-amino-1-phenylcyclohexyl)ethoxy)-2,5-difluoro-N-(1,2,4-thiadiazol-5-yl)benzenesulfonamide] | 6.33
O=S(=O)(Nc1ncns1)c1cc(F)c(OCC2(Cc3ccc(Cl)c(F)c3)CCC(O)CC2)cc1F (stereo not drawn) [Example 64, 4-((1-(4-chloro-3-fluorobenzyl)-4-hydroxycyclohexyl)methoxy)-2,5-difluoro-N-(1,2,4-thiadiazol-5-yl)benzenesulfonamide] | 6.55
O=S(=O)(Nc1nccs1)c1cc(Cl)c(NCC2CNCCO2)cc1F (stereo not drawn) [Example 6, 5-Chloro-2-fluoro-4-((morpholin-2-ylmethyl)amino)-N-(thiazol-2-yl)benzenesulfonamide] | 7.17
O=S(=O)(Nc1nccs1)c1cc(Cl)c(NCC2CNC2)cc1F [Example 15, 4-((Azetidin-3-ylmethyl)amino)-5-chloro-2-fluoro-N-(thiazol-2-yl)benzenesulfonamide] | 6.40
N[C@H]1CC[C@H](CNc2cc(F)c(S(=O)(=O)Nc3nccs3)cc2Cl)CC1 [Example 21, 4-((((1r,4r)-4-Aminocyclohexyl)methyl)amino)-5-chloro-2-fluoro-N-(thiazol-2-yl)benzenesulfonamide] | 6.40
O=S(=O)(Nc1ncns1)c1cc(F)c(OCCC2(c3ccc(Cl)cc3)CCNCC2)cc1F [Example 44, 4-(2-(4-(4-Chlorophenyl)piperidin-4-yl)ethoxy)-2,5-difluoro-N-(1,2,4-thiadiazol-5-yl)benzenesulfonamide] | 6.91
O=S(=O)(Nc1nccs1)c1cc(Cl)c(NCCC2CNC2)cc1F [Example 16, 4-((2-(Azetidin-3-yl)ethyl)amino)-5-chloro-2-fluoro-N-(thiazol-2-yl)benzenesulfonamide] | 7.54
CN1CCC(CCNc2cc(F)c(S(=O)(=O)Nc3nccs3)cc2Cl)CC1 [Example 5, 5-Chloro-2-fluoro-4-((2-(1-methylpiperidin-4-yl)ethyl)amino)-N-(thiazol-2-yl)benzenesulfonamide] | 7.15
O=S(=O)(Nc1nccs1)c1cc(Cl)c(N2CCC3CCNCC3C2)cc1F (stereo not drawn) [Example 67, 5-chloro-2-fluoro-4-(octahydro-2,7-naphthyridin-2(1H)-yl)-N-(thiazol-2-yl)benzenesulfonamide] | 6.57
O=S(=O)(Nc1nccs1)c1cc(Cl)c(NCCC2CCCCN2O)cc1F (stereo not drawn) [Example 75, 5-chloro-2-fluoro-4-((2-(1-hydroxypiperidin-2-yl)ethyl)amino)-N-(thiazol-2-yl)benzenesulfonamide] | 7.39
O=S(=O)(Nc1nccs1)c1cc(Cl)c(NCCC2CCCO2)cc1F (stereo not drawn) [Example 39, 5-Chloro-2-fluoro-4-((2-(tetrahydrofuran-2-yl)ethyl)amino)-N-(thiazol-2-yl)benzenesulfonamide] | 6.66
CC1(CCOc2cc(F)c(S(=O)(=O)Nc3ncns3)cc2F)CCC(N)CC1 (single isomer, unassigned) [Example 57, 4-(2-((1s,4s)-4-Amino-1-methylcyclohexyl)ethoxy)-2,5-difluoro-N-(1,2,4-thiadiazol-5-yl)benzenesulfonamide] | 6.42
CN(C)C1CCC(CNc2cc(F)c(S(=O)(=O)Nc3nccs3)cc2Cl)CC1 (stereo not drawn) [Example 24, 5-Chloro-4-(((4-(dimethylamino)cyclohexyl)methyl)amino)-2-fluoro-N-(thiazol-2-yl)benzenesulfonamide] | 7.16
COCC1CCN(c2cc(F)c(S(=O)(=O)Nc3nccs3)cc2Cl)C1 (stereo not drawn) [Example 69, 5-chloro-2-fluoro-4-(3-(methoxymethyl)pyrrolidin-1-yl)-N-(thiazol-2-yl)benzenesulfonamide] | 6.25
CNC1CCC(CNc2cc(F)c(S(=O)(=O)Nc3nccs3)cc2Cl)CC1 (stereo not drawn) [Example 23, 5-Chloro-4-(((4-(methylamino)cyclohexyl)methyl)amino)-2-fluoro-N-(thiazol-2-yl)benzenesulfonamide] | 7.80
N[C@H]1CC[C@@H](CNc2cc(F)c(S(=O)(=O)Nc3nccs3)cc2Cl)CC1 [Example 20, 4-((((1s,4s)-4-Aminocyclohexyl)methyl)amino)-5-chloro-2-fluoro-N-(thiazol-2-yl)benzenesulfonamide] | 8.15
CN1CCN(C2CCC(CNc3cc(F)c(S(=O)(=O)Nc4nccs4)cc3Cl)CC2)CC1 (stereo not drawn) [Example 27, 5-Chloro-2-fluoro-4-(((4-(4-methylpiperazin-1-yl)cyclohexyl)methyl)amino)-N-(thiazol-2-yl)benzenesulfonamide] | 7.40
O=S(=O)(Nc1nccs1)c1cc(Cl)c(NCCC2CCNC2)cc1F (stereo not drawn) [Example 13, 5-Chloro-2-fluoro-4-((2-(pyrrolidin-3-yl)ethyl)amino)-N-(thiazol-2-yl)benzenesulfonamide] | 7.77
NC1CCC(COc2cc(F)c(S(=O)(=O)Nc3ncns3)cc2F)(Cc2ccc(Cl)c(F)c2)CC1 (single isomer, unassigned) [Example 62, 4-((4-amino-1-(4-chloro-3-fluorobenzyl)cyclohexyl)methoxy)-2,5-difluoro-N-(1,2,4-thiadiazol-5-yl)benzenesulfonamide] | 7.26
CNC1CCC(COc2cc(F)c(S(=O)(=O)Nc3ncns3)cc2F)(Cc2ccc(Cl)c(F)c2)CC1 (stereo not drawn) [Example 63, 4-((1-(4-Chloro-3-fluorobenzyl)-4-(methylamino)cyclohexyl)methoxy)-2,5-difluoro-N-(1,2,4-thiadiazol-5-yl)benzenesulfonamide] | 7.17
NCC1CCCC(CNc2cc(F)c(S(=O)(=O)Nc3nccs3)cc2Cl)C1 (stereo not drawn) [Example 32, 4-(((3-(Aminomethyl)cyclohexyl)methyl)amino)-5-chloro-2-fluoro-N-(thiazol-2-yl)benzenesulfonamide] | 7.55
O=S(=O)(Nc1nccs1)c1cc(Cl)c(NCCC2(O)CCCC2)cc1F [Example 35, 5-Chloro-2-fluoro-4-((2-(1-hydroxycyclopentyl)ethyl)amino)-N-(thiazol-2-yl)benzenesulfonamide] | 7.00
O=S(=O)(Nc1nccs1)c1cc(Cl)c(N2CCCC(C3CCNCC3)C2)cc1F (stereo not drawn) [Example 66, 4-([3,4′-bipiperidin]-1-yl)-5-chloro-2-fluoro-N-(thiazol-2-yl)benzenesulfonamide] | 6.54
CN1C(C)(C)CC(Nc2cc(F)c(S(=O)(=O)Nc3nccs3)cc2Cl)CC1(C)C [Example 42, 5-Chloro-2-fluoro-4-((1,2,2,6,6-pentamethylpiperidin-4-yl)amino)-N-(thiazol-2-yl)benzenesulfonamide] | 6.54
O=S(=O)(Nc1nccs1)c1cc(Cl)c(NCC2(CN3CCOCC3)CC2)cc1F [Example 8, 5-Chloro-2-fluoro-4-(((1-(morpholinomethyl)cyclopropyl)methyl)amino)-N-(thiazol-2-yl)benzenesulfonamide] | 6.74
